Reference: publication PMC5620994, “Halogenation of glycopeptide antibiotics occurs at the amino acid level during non-ribosomal peptide synthesis” (Chemical Science, 2017)

Experiments:
[1] = molecular target: T1, Tcp21 (halogenase from the teicoplanin system) (Actinoplanes teichomyceticus, UniProt Q70AY7); assay: purified as FAD-bound form; format: binding; settings: FAD co-purified with the enzyme
T1 construct: synthetic codon-optimised gene, selected range 16-506, pET-28(a) via NdeI/HindIII, His-tagged, expressed in E. coli
T1 sequence (Q70AY7 16-506): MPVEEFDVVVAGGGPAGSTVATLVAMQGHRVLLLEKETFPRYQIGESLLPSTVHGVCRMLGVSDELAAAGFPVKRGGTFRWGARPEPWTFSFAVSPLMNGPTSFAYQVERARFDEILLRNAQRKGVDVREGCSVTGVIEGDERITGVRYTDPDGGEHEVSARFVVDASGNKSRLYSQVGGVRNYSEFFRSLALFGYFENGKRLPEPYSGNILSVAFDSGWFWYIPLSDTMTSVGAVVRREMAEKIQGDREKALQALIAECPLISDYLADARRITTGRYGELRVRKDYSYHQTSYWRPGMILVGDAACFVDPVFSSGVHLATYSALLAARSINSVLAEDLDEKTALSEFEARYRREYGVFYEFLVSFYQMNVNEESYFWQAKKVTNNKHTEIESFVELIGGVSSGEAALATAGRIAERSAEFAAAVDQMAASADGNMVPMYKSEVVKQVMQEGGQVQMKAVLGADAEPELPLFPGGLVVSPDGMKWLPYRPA

[2] = molecular target: T2, BhaA (balhimycin halogenase) (Amycolatopsis balhimycina, UniProt O87676); assay: purified as FAD-bound form; format: binding; settings: FAD co-purified with the enzyme
T2 construct: overproduced in Pseudomonas fluorescens BL915 deltaORF1-4 from shuttle vector pCIBhis (His tag)
T2 sequence (O87676 entry or part of it): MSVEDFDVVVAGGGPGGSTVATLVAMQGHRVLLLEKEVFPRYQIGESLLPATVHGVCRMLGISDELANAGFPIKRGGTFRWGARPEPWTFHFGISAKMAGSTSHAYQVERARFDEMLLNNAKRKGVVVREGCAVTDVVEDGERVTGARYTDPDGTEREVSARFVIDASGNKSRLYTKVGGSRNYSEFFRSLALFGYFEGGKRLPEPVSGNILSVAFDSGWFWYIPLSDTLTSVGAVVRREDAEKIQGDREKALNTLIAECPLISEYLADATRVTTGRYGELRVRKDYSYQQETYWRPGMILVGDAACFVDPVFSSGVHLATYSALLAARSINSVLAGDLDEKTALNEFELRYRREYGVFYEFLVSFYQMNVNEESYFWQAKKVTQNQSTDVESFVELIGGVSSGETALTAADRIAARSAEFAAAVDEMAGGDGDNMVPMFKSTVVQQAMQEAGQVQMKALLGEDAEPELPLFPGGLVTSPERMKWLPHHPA

**Q.** Which results are given for Cc1cc2nc3c(=O)[nH]c(=O)nc-3n(C[C@H](O)[C@H](O)[C@H](O)COP(=O)(O)OP(=O)(O)OC[C@H]3O[C@@H](n4cnc5c(N)ncnc54)[C@H](O)[C@@H]3O)c2cc1C [FAD]?
**A.** purified as FAD-bound form [1]: Both enzymes could be overproduced and purified in an FAD-bound form as anticipated; purified as FAD-bound form [2]: Both enzymes could be overproduced and purified in an FAD-bound form as anticipated
